We go through 3 compounds from publication PMC11468294, “Peptide Amphiphiles as Biodegradable Adjuvants for Efficient Retroviral Gene Delivery” (Advanced Healthcare Materials, 2023).

“Also recorded” adds a separate entry of the source. Where a SMILES comes first, the peptide text is derived from it. The star is where a group is joined. X1 = CC/C=C\C/C=C\C/C=C\CCCCCCCC(=O)*; Palmitoyl = CCCCCCCCCCCCCCCC(=O)*

The nature of series [1]: TEM morphology of peptide assemblies. The series is classed as physicochemical. Conditions: diluted from DMSO stock (10 mg mL-1) to 1 mg mL-1 in PBS, incubated 1 d at rt. As for the experimental part:
(§1) Transmission electron microscopy (TEM) measurements, Thioflavin (ThT), zeta‐potential measurements for fibril characterization, ATR‐IR spectra acquisition and the calculation of β−sheet were prepared and conducted analogous to a previous report.^[ [20], [86] ^] […] Fibrils were defined as distinct, if no visible structures could be identified in fluorescence and brightfield microscopy. […] The derived count rate of the zeta‐potential measurement was used as information on the light scattering intensity and turbidity of the sample as a further indicator for microscopic aggregation.^[ [90] ^]
TEM: 5 µL of fibrils (1 mg mL^−1) were placed on 300 mesh, Formvar layered copper grids. After 10 min incubation time, the grids were staining with 4% uranyl acetate solution for 2.5 min. After
three washing steps with dd H2O excess solvent was removed by filter paper. Measurements
were performed on a Jeol 1400 electron microscope with 120 kV acceleration voltage.

The subject of series [2] is HIV-1 infection of TZM-bl cells. Briefly: HIV-1 infection assay (β-galactosidase luminescence reporter). The series is classed as cell-based. As for the experimental part:
HIV‐1 Infection Assay: The effect of peptide fibrils on HIV‐1 infection was studied via a luminescence assay for β‐galactosidase, which was reported by TZM‐bl cells upon infection. 10000 TZM‐bl cells were seeded in 180 µl supplemented DMEM one day prior infection. The cells were inoculated with 20 µl PNF solution 1:1 (v/v) mixed with virus (1:500 dilution) after an incubation time of 10 min. The HIV‐1 infection assay was conducted in three technical replicates and repeated in three independent experiments unless stated otherwise. The assay was conducted as described before.^[ [20] ^]

A short description of series [3]: Zeta-potential measurement. The series is classed as physicochemical. The method, then: Zeta‐potential: 60 µL of the peptides (1 mg mL^−1) were diluted in 600 µL, 1 mM KCl solution and placed in a disposable folded capillary cuvette. All zeta‐potential measurements (Zetasizer, Malvern Instruments) were conducted in triplicates for each sample.
The nature of series [4]: Microscopic aggregation (fluorescence / confocal microscopy, derived count rate). The series is classed as physicochemical. The conditions noted are these: fibrils preformed at 1 mg mL-1 in PBS; ThT or Proteostat stain, widefield or confocal microscopy; derived count rate > 1000 kcps as criterion. The method, then:
as §1
Fluorescence microscopy: 1 µL Fibrils (1 mg mL^−1) were stained with 9 µL, 50 µM ThT. 10 µL of the stained fibrils (0.1 mg mL^−1) were placed on a microscopy glass. Fluorescence microscopy measurements were performed on a Leica DMi8 microscope with 10x air objective and equipped with a Leica MC170 HD camera with a filter setting λem = 527/30 nm upon excitation at λex = 480/40 nm) and processed with the Leica LASX software.
7 Effects of PA modifications on properties and activity
To investigate the effects of modification in the PA sequence, we created various peptide amphiphiles derived from PA1 by varying the (I) hydrophobic moiety, (II) the linkage chemistry and (III) the peptide sequence (Figure S12, SI chapter 7.1 – 7.3). The color code for sequence representation is yellow for the hydrophobic moiety, blue for cationic amino acids, red for non-polar amino acids, purple for polar uncharged amino acids, and green for anionic amino acids. To be concise, only the summarized information will be discussed, all original data for the peptides are summarized in the (Figure S26 - […]
Figure S12 Summarized overview of peptide amphiphile library in which systematic variations the original sequence […]
chemistry and (III) the peptide sequence on infectivity enhancement and degradability (see SI chapter 7.1 – 7.3).
In the following section a compound is considered infectivity enhancing if n-fold infectivity at 1.3 µM is larger than 2. A compound is considered to form µm-sized aggregates if visible particles were observed in widefield microscopy (brightfield or ThT-staining filter, objective 10x) or confocal […]
than 1000 kcps in Zeta-Potential measurements.
For the degradability only the PAs which could be stained with Proteostat (Figure S26) and were visible in microscopy (Figure S15, Figure S18, Figure S21, and Figure S22) were studied in detail. To determine […]
whether a PA is degraded or not, Proteostat stained PAs which are added to Hela cells (2 µg peptide added to 20.000 cells) and studied via confocal laser scanning microscopy. […]
In the following, we will distinguish between three aggregation types for fibrillar structures: Fibrils which were not aggregating (below resolution limit of the microscope, approx. 650 nm), moderately aggregating (< 50 µm2) and aggregating to large particles (> 50 µm 2).
7.1 Effects of hydrophobic moiety exchange on properties and activity
To investigate the effects of varying hydrophobic moieties on assembly, aggregation and activity , we

The nature of series [5]: ATR-FT-IR β-sheet content. It counts as physicochemical. The conditions noted are these: ATR-IR of lyophilized fibril solutions (1 mg mL-1, PBS); peak integration at 1630 cm-1 in 2nd derivative of amide I region. The method, then: ATR‐FT‐IR: ATR‐IR spectra acquisition and the calculation of β−sheet content were conducted according to a previous report.^[ [20] ^] Briefly, FT‐IR spectra of solid samples were recorded after lyophilization of fibril solutions using a Bruker Tensor II spectrometer equipped with a diamond crystal as ATR element with a spectral resolution of 2 cm–1, each spectrum was an average of 64 scans. The data was processed with Origin software. β−sheet amount was determined by calculating the integral of the peak at 1630 cm^−1 (β‐sheet) relative to the integral between 1650–1700 cm^−1 (native structure) from the 2nd derivative of the FT‐IR spectra.

The next series deals with HeLa cells. Briefly: Cell-PA interaction by confocal laser scanning microscopy. The series is classed as cell-based. The conditions noted are these: peptide 20 µg mL-1 added for 30 min, washed, Proteostat stain. As for the experimental part: Confocal laser scanning microscopy and degradation study with PA1‐3 and HeLa cells: HeLa cells were seeded one day prior to conducting the assay (40000/well) in an 8‐well IBIDI slide. 4 µL of the preformed peptide fibrils (1 mg mL^−1) were diluted with 4 µL Proteostat (Enzo Life Science, 1 µL stock in 999 µL PBS) and incubated for 10 min and further diluted with medium to receive a final peptide concentration of 20 µg mL^−1. The nucleus of the HeLa cells was stained with Hoechst 33 342 (NucBlue, Thermo Fisher Scientific). The peptide solution was transferred to the HeLa cells and incubated for 30 min at 37°C before washing three times with PBS. The interaction of fibril clusters with cells was monitored after 30 min incubation time on a Stellaris 8 confocal laser scanning microscope (Leica) equipped with a 20x air objective and laser excitation wavelengths of 405 nm (Hoechst) and 561 nm (Proteostat). For the evaluation of aggregate degradation, the samples were further incubated at 37°C for 3 d and analyzed without any additional washing step. The evaluation of aggregate size and number was conducted by analyzing Proteostat stained aggregates via the 3D objects counter function of ImageJ 1.53f51 for 3 individual measurements (area 581.25 µm × 581.25 µm). […] The number of aggregates larger than 10 µm^2 were counted via the 3D objects counter function of ImageJ 1.53f51. The mean number and standard deviations were determined by averaging at least three technical triplicates.
Figure S6 Laser scanning microscopy micrographs of A cells only (control), and Proteostat-stained (red) peptides B EF-
C ([…]), C PA1, D PA2, E PA3, F P1, G P2, H P3 added to HeLa cells (nucleus in blue). The peptides (20 µg mL-
1) were added to cells for 30 min, washed and analyzed. […]

The nature of the next series: ThT fluorescence. The series is classed as physicochemical. On the set-up: key: + = ThT active; − = no ThT fluorescence observed. The conditions noted are these: 1 mg mL-1 in PBS; ThT-active if fluorescence at least twice the control (PBS with 10% DMSO). As for the experimental part: ThT‐fluorescence: 20 µL 50 µM of ThT solution in PBS was pipetted in a black 384 well‐plate and 4 µL of the nanofibril solution 1 mg mL^−1 were added. For reference PBS with 10% DMSO (4 µL) instead of fibril solution was added. Subsequently, fluorescence emission was recorded λem = 488 nm upon excitation at λex = 440 nm with 10 nm bandwidth and multiple reads per well (3 × 3) using a Spark 20 M microplate reader (Tecan Group, Ltd). Data processing was performed with Origin software. A peptide fibril was considered as ThT‐active if the fluorescence intensity was at least twice as strong compared to the control (PBS containing 10% DMSO).

[6] abbreviates: infectivity enhancing if n-fold at 1.3 µM larger than 2.

`CCCCCCCCCCCCCCCC(=O)N[C@H](C(=O)N[C@H](C(=O)N[C@H](C(=O)N[C@@H](C)C(=O)N[C@@H](C)C(=O)N[C@@H](C)C(=O)N[C@@H](CCC(=O)O)C(=O)N[C@@H](CCC(=O)O)C(=O)N[C@@H](CCC(=O)O)C(N)=O)C(C)C)C(C)C)C(C)C` [PA3] (Palmitoyl-VVVAAAEEE-NH2): the “morphology of peptide assemblies / fibril formation (TEM)” value in series [1] is on record as “distinct fibrils”. In series [2] (setting [6]), the “infectivity enhancement of HIV-1 (in words)” value is on record as “Inactive”. The Zeta-Potential in series [3] (fibrils 1 mg mL-1 in PBS, 60 µL diluted in 600 µL 1 mM KCl, triplicates) is recorded as −29.8 ± 2.7 mV. In series [4], the “formation of µm-sized aggregates (in words)” value (“formation … (in words)” for short) was “did not bundle or adopt µm‐sized aggregates in PBS”. The compound further gave a β-sheet content in series [5] of 61%. Moreover, the “association with cellular membranes” value with HeLa cells is listed as “does not associate with cells”. The ThT fluorescence result in “ThT fluorescence” is given as “+”.

`CCCCCCCCCCCCCCCC(=O)N[C@@H](C)C(=O)NCC(=O)NCC(=O)N[C@@H](CCCNC(=N)N)C(=O)N[C@H](C(=O)N[C@@H](CCCCN)C(N)=O)C(C)C` [C16-AGGRVK-NH2] (Palmitoyl-AGGRVK-NH2): the “formation … (in words)” value in series [4] is “not forming µm-sized aggregates and forming too few/less aggregates, respectively; also recorded: no aggregation”. For the same compound, the “association with cellular membranes” value in the series on HeLa cells is reported as “did not associate with cells”.

Regarding `CC/C=C\C/C=C\C/C=C\CCCCCCCC(=O)N[C@H](C(=O)N[C@H](C(=O)N[C@H](C(=O)N[C@@H](C)C(=O)N[C@@H](C)C(=O)N[C@@H](C)C(=O)N[C@@H](CCCCN)C(=O)N[C@@H](CCCCN)C(=O)N[C@@H](CCCCN)C(N)=O)C(C)C)C(C)C)C(C)C` (X1-VVVAAAKKK-NH2), the “morphology of peptide assemblies / fibril formation (TEM)” value was “cannot self‐assemble into fibrils” in series [1] and “neither forming fibrils, nor it is aggregating or active” in series [1] (listed as alpha linolenic acid). Moreover, the “infectivity enhancement of HIV-1 (in words)” value in series [2] (setting [6]) is listed as “Inactive”; in series [2] (infectivity enhancing if n-fold at 1.3 µM larger than 2, listed as alpha linolenic acid), “not able to maintain activity”. For the same compound, the “zeta-potential (in words)” value in series [3] (1 mg mL-1 in PBS, diluted in 1 mM KCl) is listed as “neutral zeta-potential”. For the same compound, in series [4], the “formation … (in words)” value is on record as “do not aggregate”.
